Measurements published in ChEMBL document CHEMBL5506038, “Discovery of LC-MI-3: A Potent and Orally Bioavailable Degrader of Interleukin-1 Receptor-Associated Kinase 4 for the Treatment of Inflammatory Diseases” (J Med Chem, 2024).
Active and inactive are the calls of the source. The calls are words filed in the database; no cut-off is given here.

What was measured:
RAW264.7 [1] = assay: Effect on IRAK4 mRNA level in mouse RAW264.7 cells by RT-qPCR analysis; format: functional, cell-based
[2] = target: T1, Protein cereblon/Interleukin-1 receptor-associated kinase 4 (Mus musculus) (UniProt Q8C7D2+Q8R4K2); assay: PROTAC activity at IRAK4/CRBN in mouse BaF3 cells assessed as reduction in IRAK4 level at 100 nM incubated for 12 hrs by Western blot analysis relative to control; format: cell-based; set-up: scale not given: the % may be the effect or the level left
T1 sequence (Q8C7D2 whole entry, looked up): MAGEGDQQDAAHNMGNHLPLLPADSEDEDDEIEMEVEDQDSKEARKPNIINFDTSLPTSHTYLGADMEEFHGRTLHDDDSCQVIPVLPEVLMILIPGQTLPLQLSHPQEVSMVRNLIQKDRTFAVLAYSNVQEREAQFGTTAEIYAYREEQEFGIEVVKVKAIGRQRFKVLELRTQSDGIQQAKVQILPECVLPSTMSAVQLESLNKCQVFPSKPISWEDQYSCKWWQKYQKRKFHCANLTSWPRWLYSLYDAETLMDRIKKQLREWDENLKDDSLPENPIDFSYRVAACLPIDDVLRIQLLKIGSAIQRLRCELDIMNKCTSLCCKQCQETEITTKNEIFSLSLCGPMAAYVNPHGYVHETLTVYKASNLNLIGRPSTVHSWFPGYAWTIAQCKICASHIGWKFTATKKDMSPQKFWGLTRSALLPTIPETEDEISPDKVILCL
T1 sequence (Q8R4K2 whole entry, looked up): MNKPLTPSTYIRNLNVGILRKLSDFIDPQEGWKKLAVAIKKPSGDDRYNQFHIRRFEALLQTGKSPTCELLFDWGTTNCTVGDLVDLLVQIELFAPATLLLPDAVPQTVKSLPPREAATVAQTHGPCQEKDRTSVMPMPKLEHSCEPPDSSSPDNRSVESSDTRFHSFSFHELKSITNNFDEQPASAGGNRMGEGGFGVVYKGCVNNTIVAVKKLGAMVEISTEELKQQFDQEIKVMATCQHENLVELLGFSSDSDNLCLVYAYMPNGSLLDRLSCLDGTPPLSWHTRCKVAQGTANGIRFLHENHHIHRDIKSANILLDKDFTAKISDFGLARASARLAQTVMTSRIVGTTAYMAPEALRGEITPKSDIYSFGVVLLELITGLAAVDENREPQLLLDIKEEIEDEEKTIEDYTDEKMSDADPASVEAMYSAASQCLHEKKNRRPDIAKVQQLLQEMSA

[3] = target: Protein cereblon/Interleukin-1 receptor-associated kinase 4 (Homo sapiens, UniProt Q9NWZ3+Q96SW2); assay: PROTAC activity at IRAK4/CRBN in human PBMC cells assessed as reduction in IRAK4 level at 100 nM incubated for 12 hrs by Western blot analysis; format: cell-based
Sequence of Protein cereblon/Interleukin-1 receptor-associated kinase 4 (Q96SW2 whole entry, looked up, one chain of several): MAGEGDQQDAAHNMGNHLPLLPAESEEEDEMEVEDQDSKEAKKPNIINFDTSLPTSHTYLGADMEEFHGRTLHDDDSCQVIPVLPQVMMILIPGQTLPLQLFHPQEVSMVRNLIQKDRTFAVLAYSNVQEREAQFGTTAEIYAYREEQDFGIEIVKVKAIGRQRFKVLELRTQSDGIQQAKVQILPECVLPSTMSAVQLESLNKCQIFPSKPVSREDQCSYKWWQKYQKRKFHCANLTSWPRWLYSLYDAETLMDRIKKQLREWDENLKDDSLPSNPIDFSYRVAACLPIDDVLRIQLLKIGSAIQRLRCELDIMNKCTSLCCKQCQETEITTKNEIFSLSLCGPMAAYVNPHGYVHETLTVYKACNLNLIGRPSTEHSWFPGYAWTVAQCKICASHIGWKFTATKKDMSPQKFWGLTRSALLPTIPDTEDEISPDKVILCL

RAW264.7 [4] = assay: Effect on IL-6 mRNA expression in LPS-induced mouse RAW264.7 cells at 1 uM pretreated with compound for 1 hr followed by LPS-induction and measured after 6 hrs by RT-PCR analysis; format: functional, cell-based; details: time 7.0 hrs
[5] = Oral bioavailability in Sprague-Dawley rat at 20 mg/kg by LC-MS/MS analysis; format: ADME, organism-based; details: in vivo
[6] = target: T2, Interleukin-1 receptor-associated kinase 4 (Homo sapiens, UniProt Q9NWZ3); assay: Inhibition of IRAK4 (unknown origin)
T2 sequence (Q9NWZ3 whole entry): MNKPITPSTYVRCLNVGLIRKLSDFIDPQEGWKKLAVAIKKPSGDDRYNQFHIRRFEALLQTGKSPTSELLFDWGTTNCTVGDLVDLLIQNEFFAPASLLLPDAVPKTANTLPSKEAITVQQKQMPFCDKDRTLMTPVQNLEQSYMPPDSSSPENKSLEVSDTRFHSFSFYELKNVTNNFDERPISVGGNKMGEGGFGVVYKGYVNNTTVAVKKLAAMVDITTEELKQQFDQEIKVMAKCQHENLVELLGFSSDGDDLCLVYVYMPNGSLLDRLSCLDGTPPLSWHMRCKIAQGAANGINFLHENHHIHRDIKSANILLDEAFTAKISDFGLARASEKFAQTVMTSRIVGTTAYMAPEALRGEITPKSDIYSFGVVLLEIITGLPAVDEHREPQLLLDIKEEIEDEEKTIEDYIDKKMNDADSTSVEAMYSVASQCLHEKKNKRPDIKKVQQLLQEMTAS

[7] = Cmax in Sprague-Dawley rat at 20 mg/kg, po by LC-MS/MS analysis; format: ADME, organism-based; details: in vivo
RAW264.7 [8] = assay: Activation of NF-kappaB pathway in LPS-induced mouse RAW264.7 cells expressing EGFP at 5 uM pretreated with compound for 1 hr followed by LPS-induction and measured after 6 hrs by flow cytometry analysis; format: cell-based; details: filed as activator, time 7.0 hrs
Mus musculus [9] = assay: Anti-inflammatory activity in imiquimod-induced C57BL/6 mouse psoriasis model assessed as […] in skin thickness at 20 mg/kg, po administered twice daily measured on day 7 by H and E staining based analysis; format: functional, organism-based; details: time 7.0 day
[10] = target: Serine/threonine-protein kinase RIO1 (Homo sapiens) (UniProt Q9BRS2); assay: Induction of RIOK1 degradation in human Caco-2 cells upto 10000 nM incubated for 12 hrs by Western blotting analysis; format: cell-based
Sequence of Serine/threonine-protein kinase RIO1 (Homo sapiens) (Q9BRS2 whole entry): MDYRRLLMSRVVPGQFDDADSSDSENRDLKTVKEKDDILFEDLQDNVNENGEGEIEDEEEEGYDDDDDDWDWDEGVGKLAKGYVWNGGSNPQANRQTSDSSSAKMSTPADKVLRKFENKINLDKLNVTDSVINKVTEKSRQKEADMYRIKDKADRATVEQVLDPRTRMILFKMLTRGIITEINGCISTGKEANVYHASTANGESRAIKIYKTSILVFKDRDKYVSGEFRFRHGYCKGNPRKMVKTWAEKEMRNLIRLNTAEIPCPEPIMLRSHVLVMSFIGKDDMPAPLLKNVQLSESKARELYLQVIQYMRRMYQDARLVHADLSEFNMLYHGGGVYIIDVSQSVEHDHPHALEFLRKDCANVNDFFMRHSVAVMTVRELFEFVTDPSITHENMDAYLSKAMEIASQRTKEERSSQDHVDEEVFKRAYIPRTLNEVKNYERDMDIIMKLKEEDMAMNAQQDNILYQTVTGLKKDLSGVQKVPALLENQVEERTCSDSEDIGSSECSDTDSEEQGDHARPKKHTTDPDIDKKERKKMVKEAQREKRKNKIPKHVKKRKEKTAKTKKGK

[11] = Half life in Sprague-Dawley rat at 20 mg/kg, po by LC-MS/MS analysis; format: ADME, organism-based; details: in vivo
[12] = Tmax in Sprague-Dawley rat at 20 mg/kg, po by LC-MS/MS analysis; format: ADME, organism-based; details: in vivo
[13] = Half life in Sprague-Dawley rat at 2 mg/kg, iv by LC-MS/MS analysis; format: ADME, organism-based; details: in vivo
RAW264.7 [14] = assay: Protection against Escherichia coli-induced sepsis in mouse RAW264.7 cells assessed as reduction in IL-6 level at 1 uM pretreated with compound for 6 hrs followed by Escherichia coli-induction and measured after 6 hrs by RT-PCR analysis; format: functional, cell-based; details: time 12.0 hrs
RAW264.7 [15] = assay: Protection against Escherichia coli-induced sepsis in mouse RAW264.7 cells assessed as reduction in TNF-alpha production at 1 uM pretreated with compound for 6 hrs followed by Escherichia coli-induction and measured after 6 hrs by ELISA analysis; format: functional, cell-based; details: time 12.0 hrs
RAW264.7 [16] = assay: Protection against Escherichia coli-induced sepsis in mouse RAW264.7 cells assessed as reduction in IL-6 production at 1 uM pretreated with compound for 6 hrs followed by Escherichia coli-induction and measured after 6 hrs by ELISA analysis; format: functional, cell-based; details: time 12.0 hrs
Mus musculus [17] = assay: Anti-inflammatory activity in imiquimod-induced C57BL/6 mouse psoriasis model assessed as reduction in keratinocyte proliferation at 20 mg/kg, po administered twice daily measured for 6 days by H and E staining based analysis; format: functional, organism-based; details: time 6.0 day
[18] = target: Zinc finger protein Aiolos (Homo sapiens) (UniProt Q9UKT9); assay: Induction of IKZF3 degradation in human THP-1 cells upto 10000 nM incubated for 12 hrs by Western blotting analysis; format: cell-based
Sequence of Zinc finger protein Aiolos (Homo sapiens) (Q9UKT9 whole entry): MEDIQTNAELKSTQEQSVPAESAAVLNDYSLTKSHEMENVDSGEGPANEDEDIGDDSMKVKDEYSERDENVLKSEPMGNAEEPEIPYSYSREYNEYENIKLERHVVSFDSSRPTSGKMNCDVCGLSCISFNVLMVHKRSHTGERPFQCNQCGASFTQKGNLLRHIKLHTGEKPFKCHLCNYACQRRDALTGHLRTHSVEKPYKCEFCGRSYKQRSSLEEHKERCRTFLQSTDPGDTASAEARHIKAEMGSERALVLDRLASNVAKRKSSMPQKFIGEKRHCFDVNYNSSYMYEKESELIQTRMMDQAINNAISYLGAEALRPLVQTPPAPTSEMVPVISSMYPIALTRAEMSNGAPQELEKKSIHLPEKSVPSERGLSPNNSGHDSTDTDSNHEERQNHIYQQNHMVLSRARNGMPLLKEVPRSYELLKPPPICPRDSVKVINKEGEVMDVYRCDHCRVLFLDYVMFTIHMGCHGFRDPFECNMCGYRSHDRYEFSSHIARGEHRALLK

Mus musculus [19] = assay: Anti-inflammatory activity against LPS-induced acute […] injury C57BL/6 mouse model assessed as reduction in IL-6 level in lung at 20 mg/kg, IG pretreated with compound for 12 hrs followed by LPS-induction and measured after 6 hrs by RT-PCR analysis; format: functional, organism-based; details: time 18.0 hrs
[20] = Cmax in Sprague-Dawley rat at 2 mg/kg, iv by LC-MS/MS analysis; format: ADME, organism-based; details: in vivo
[21] = Tmax in Sprague-Dawley rat at 2 mg/kg, iv by LC-MS/MS analysis; format: ADME, organism-based; details: in vivo
[22] = Volume of distribution at steady state in Sprague-Dawley rat at 2 mg/kg, iv by LC-MS/MS analysis; format: ADME, organism-based; details: in vivo, read-out: Vdss
Mus musculus [23] = assay: Anti-inflammatory activity in imiquimod-induced C57BL/6 mouse psoriasis model assessed as improvement in swelling at 20 mg/kg, po administered twice daily measured for 6 days; format: functional, organism-based; details: time 6.0 day
Mus musculus [24] = assay: Anti-inflammatory activity against LPS-induced acute […] injury C57BL/6 mouse model assessed as reduction in F4/80-positive macrophage in lung at 20 mg/kg, IG pretreated with compound for 12 hrs followed by LPS-induction and measured after 6 hrs by Immunohistochemical analysis; format: functional, organism-based; details: time 18.0 hrs
[25] = target: T3, Interleukin-1 receptor-associated kinase 4 (Homo sapiens) (UniProt Q9NWZ3); assay: Inhibition of IRAK4 in human BMDM cells assessed as decrease in TLR4 endocytosis by flow cytometry analysis; format: cell-based
T3 sequence (whole entry): T2 sequence (Q9NWZ3 whole entry)

Mus musculus [26] = assay: Anti-inflammatory activity in imiquimod-induced C57BL/6 mouse psoriasis model assessed as reduction in epidermal acanthosis at 20 mg/kg, po administered twice daily measured for 6 days by H and E staining based analysis; format: functional, organism-based; details: time 6.0 day
Mus musculus [27] = assay: Anti-inflammatory activity against LPS-induced acute […] injury C57BL/6 mouse model assessed as reduction in TNF-alpha level in lung at 20 mg/kg, IG pretreated with compound for 12 hrs followed by LPS-induction and measured after 6 hrs by RT-PCR analysis; format: functional, organism-based; details: time 18.0 hrs
[28] = target: T1, Protein cereblon/Interleukin-1 receptor-associated kinase 4 (Mus musculus); assay: PROTAC activity at IRAK4/CRBN in mouse RAW264.7 cells assessed as reduction in IRAK4 level at 100 nM incubated for 12 hrs by Western blot analysis relative to control; format: cell-based
Mus musculus [29] = assay: Anti-inflammatory activity against LPS-induced acute […] injury C57BL/6 mouse model assessed as reduction in TNF-alpha level in BALF at 20 mg/kg, IG pretreated with compound for 12 hrs followed by LPS-induction and measured after 6 hrs by ELISA analysis; format: functional, organism-based; details: time 18.0 hrs

Activity [2]: 15%
Activity [3]: Active
bioavailability [5]: 8.15%
IC50 [6]: < 100 nM
Cmax [7]: 440 ng/mL
Activity [10]: inactive
half-life [11]: 87.2 min
Tmax [12]: 30 min
half-life [13]: 29.2 min
Activity [18]: inactive
Cmax [20]: 2920 ng/mL
Tmax [21]: 4.98 min
Vd [22]: 0.584 L/kg
inhibition [25]: Active
Emax [28]: 85%
Structure (SMILES): COc1cc(N2CCN(C(=O)CCOCC#Cc3ccc4c(c3)C(=O)N(C3CCC(=O)NC3=O)C4=O)CC2)ccc1NC(=O)c1cccc(-c2ccn[nH]2)n1 (centres undefined)
Activity (RAW264.7 [1]): inactive
Activity (RAW264.7 [4]): Active
Activity (RAW264.7 [8]): Active
Activity (Mus musculus [9]): Active
Activity (RAW264.7 [14]): Active
Activity (RAW264.7 [15]): Active
Activity (RAW264.7 [16]): Active
Activity (Mus musculus [17]): Active
Activity (Mus musculus [19]): Active
Activity (Mus musculus [23]): Active
Activity (Mus musculus [24]): Active
Activity (Mus musculus [26]): Active
Activity (Mus musculus [27]): Active
Activity (Mus musculus [29]): Active
